Results published in patent publication US7115629B2, “Carbamates derived from arylalkylamines” (Laboratorios S.A.L.V.A.T., S.A., priority 2000, dated 2006).

Legend:
[1] = test system: M2 and M3 receptors; details: background statement; compounds exhibit M3 antagonist activity; cited from earlier work
[2] = molecular target: T1, human M3 receptors (Homo sapiens, UniProt P20309); experiment: Binding test to cloned human M3 muscarinic receptor ([3H]-NMS displacement, CHO-K1 membranes); details: membranes of CHO-K1 cells transfected with human M3; [3H]-NMS; mean of two independent experiments in duplicate; read-out: M3 (human M3 antagonist activity, binding affinity constant Ki)
T1 construct: purchased Receptor Biology; host or cells: CHO-K1 cells transfected with the human receptor (membranes)
T1 sequence (P20309 whole entry): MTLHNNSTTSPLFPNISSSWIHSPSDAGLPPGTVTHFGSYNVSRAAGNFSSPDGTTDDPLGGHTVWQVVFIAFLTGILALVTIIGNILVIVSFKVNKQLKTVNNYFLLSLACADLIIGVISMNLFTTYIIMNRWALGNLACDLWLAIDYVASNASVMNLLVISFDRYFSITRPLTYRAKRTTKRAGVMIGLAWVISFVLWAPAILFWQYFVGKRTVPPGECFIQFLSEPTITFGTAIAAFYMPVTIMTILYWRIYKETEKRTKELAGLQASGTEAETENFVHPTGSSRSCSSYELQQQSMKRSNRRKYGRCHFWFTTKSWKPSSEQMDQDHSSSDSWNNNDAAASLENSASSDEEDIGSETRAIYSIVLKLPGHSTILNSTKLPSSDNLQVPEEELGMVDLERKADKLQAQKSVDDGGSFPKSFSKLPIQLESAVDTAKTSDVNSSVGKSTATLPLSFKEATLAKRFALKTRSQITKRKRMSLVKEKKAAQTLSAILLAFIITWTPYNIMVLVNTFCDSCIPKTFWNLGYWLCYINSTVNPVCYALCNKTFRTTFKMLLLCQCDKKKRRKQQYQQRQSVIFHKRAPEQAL
Method: (§1) Membranes from CHO—K1 cells transfected with human M2 or M3 receptors (Receptor Biology) were used. The summarised experimental procedure for both receptors was the following: membranes (15–20 μg) were incubated with [^3H]-NMS (0.3–0.5 nM) for 60 min at 25° C., in presence or absence of the antagonists. Incubation was carried out in 96 wells polystyrene microplates in a total incubation volume of 0.2 mL of PBS pH 7.4. Non specific binding was determined in parallel assays in presence of atropine (5 μM). Samples were filtered through type GF/C glass fibre, preincubated with PEI 0.3%. Filters were washed 3–4 times with 50 mM Tris-HCl, 0.9% NaCl, pH 7.4 at 4° C., and dried at 50° C. for 45 min. Filter bound radioactivity was quantified by liquid scintillation counting.
(§2) For the calculation of the inhibition constant (Ki), displacement curves were analysed by non-linear regression (GraphPad Prism). Dissociation constant (KD) of [^3H]-NMS for each receptor was obtained through the saturation curves obtained in the same conditions as the experiments carried out with the antagonists.

[3] = molecular target: T2, human M2 receptors (Homo sapiens, UniProt P08172); experiment: Binding test to cloned human M2 muscarinic receptor ([3H]-NMS displacement, CHO-K1 membranes), reported as M2/M3 ratio; details: value greater than 1 indicates selectivity for the M3 receptor
T2 construct: purchased Receptor Biology; host or cells: CHO-K1 cells transfected with the human receptor (membranes)
T2 sequence (P08172 1-466): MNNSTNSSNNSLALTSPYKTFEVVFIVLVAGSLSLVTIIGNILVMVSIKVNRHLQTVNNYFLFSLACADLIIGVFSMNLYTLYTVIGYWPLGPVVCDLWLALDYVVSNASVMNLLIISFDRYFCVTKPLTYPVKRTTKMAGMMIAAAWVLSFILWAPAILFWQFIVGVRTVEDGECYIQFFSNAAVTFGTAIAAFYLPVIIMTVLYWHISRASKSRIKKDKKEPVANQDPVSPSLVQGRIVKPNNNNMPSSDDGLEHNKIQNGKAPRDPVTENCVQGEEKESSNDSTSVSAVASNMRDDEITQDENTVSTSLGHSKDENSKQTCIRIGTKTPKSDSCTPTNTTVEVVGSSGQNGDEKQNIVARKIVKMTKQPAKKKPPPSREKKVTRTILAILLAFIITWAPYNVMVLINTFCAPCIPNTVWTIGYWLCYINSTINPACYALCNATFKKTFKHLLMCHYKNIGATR
Method: as §1, §2

SMILES	affinity towards the M2 receptor [1]	Ki [2] [pM]	M2/M3 (ratio between M2 and M3 receptor affinities) [3]
NC(=O)C(c1ccccc1)(c1ccccc1)[C@@H]1CCN(CCc2ccc3c(c2)CCO3)C1 [DARIFENACIN, darifenacin]	without any significant affinity	–	–
O=C(OC1CN2CCC1CC2)N(Cc1ccc(F)c(F)c1)c1ccccc1 (centres unmarked) [Example 26]	–	100	50
O=C(OC1CN2CCC1CC2)N(Cc1ccc(Cl)c(F)c1)c1ccccc1F (centres unmarked) [Example 27]	–	370	92
O=C(OC1CN2CCC1CC2)N(Cc1ccc(F)c(Cl)c1)c1ccccc1 (centres unmarked) [Example 28]	–	1500	35
O=C(OC1CN2CCC1CC2)N(Cc1ccc(Cl)c(Cl)c1)c1ccccc1 (centres unmarked) [Example 29]	–	1400	50
Cc1cccc(N(Cc2cc(F)cc(F)c2)C(=O)OC2CN3CCC2CC3)c1 (centres unmarked) [Example 30]	–	90	74
Cc1cccc(N(Cc2ccc(C)c(F)c2)C(=O)OC2CN3CCC2CC3)c1 (centres unmarked) [Example 31]	–	320	52
COc1ccc(CN(C(=O)OC2CN3CCC2CC3)c2ccccc2F)cc1F (centres unmarked) [Example 32]	–	3300	19
O=C(OC1CN2CCC1CC2)N(Cc1ccc(F)c(F)c1F)c1cccc(Cl)c1 (centres unmarked) [Example 33]	–	400	142
Cc1cccc(N(Cc2cc(F)cc(F)c2F)C(=O)OC2CN3CCC2CC3)c1 (centres unmarked) [Example 34]	–	300	90
Cc1cccc(N(Cc2cc(F)c(F)cc2F)C(=O)OC2CN3CCC2CC3)c1 (centres unmarked) [Example 35]	–	31	839
O=C(OC1CN2CCC1CC2)N(Cc1cc(F)c(F)c(F)c1)c1cccc(F)c1 (centres unmarked) [Example 36]	–	40	545
O=C(OC1CN2CCC1CC2)N(Cc1cc(F)c(F)c(F)c1)c1ccc(F)cc1 (centres unmarked) [Example 37]	–	660	134
Cc1cccc(N(Cc2ccccc2C)C(=O)OC2CN3CCC2CC3)c1 (centres unmarked) [Example 38]	–	230	40
O=C(OC1CN2CCC1CC2)N(Cc1ccc(C(F)(F)F)cc1)c1ccccc1 (centres unmarked) [Example 39]	–	320	84
CCc1ccc(CN(C(=O)OC2CN3CCC2CC3)c2ccccc2)cc1 (centres unmarked) [Example 40]	–	66	92
CC(C)(C)c1ccc(CN(C(=O)OC2CN3CCC2CC3)c2ccccc2)cc1 (centres unmarked) [Example 41]	–	110	271
Cc1ccccc1N(Cc1ccc(CO)cc1)C(=O)OC1CN2CCC1CC2 (centres unmarked) [Example 42]	–	1170	38
N#Cc1ccc(CN(C(=O)OC2CN3CCC2CC3)c2ccccc2)cc1 (centres unmarked) [Example 43]	–	900	31
NC(=O)c1ccc(CN(C(=O)OC2CN3CCC2CC3)c2ccccc2)cc1 (centres unmarked) [Example 44]	–	7700	6
O=C(OC1CN2CCC1CC2)N(Cc1ccccc1O)c1ccccc1F (centres unmarked) [Example 45]	–	180	37
Cc1cccc(N(Cc2cccc(O)c2)C(=O)OC2CN3CCC2CC3)c1 (centres unmarked) [Example 46]	–	150	33
O=C(OC1CN2CCC1CC2)N(Cc1ccc(O)cc1)c1ccccc1 (centres unmarked) [Example 47]	–	5700	33

SMILES	affinity towards the M2 receptor [1]	Ki [2] [pM]	M2/M3 (ratio between M2 and M3 receptor affinities) [3]
O=C(OC1CN2CCC1CC2)N(Cc1cccc(OCc2ccccc2)c1)c1cccc(Cl)c1 (centres unmarked) [Example 48]	–	430	24
O=C(OC1CN2CCC1CC2)N(Cc1cccc(OC(F)(F)F)c1)c1ccccc1 (centres unmarked) [Example 49]	–	10100	7
CC(C)Oc1ccc(CN(C(=O)OC2CN3CCC2CC3)c2ccccc2)cc1 (centres unmarked) [Example 50]	–	840	26
COc1cc(CN(C(=O)OC2CN3CCC2CC3)c2cccc(Cl)c2)ccc1OCc1ccccc1 (centres unmarked) [Example 51]	–	51900	3
O=C(OC1CN2CCC1CC2)N(Cc1ccc2c(c1)OCO2)c1ccccc1 (centres unmarked) [Example 52]	–	1200	25
Cc1cccc(N(Cc2ccc3c(c2)OCCO3)C(=O)OC2CN3CCC2CC3)c1 (centres unmarked) [Example 53]	–	1250	26
O=C(OC1CN2CCC1CC2)N(CC1CC1)c1ccccc1 (centres unmarked) [Example 54]	–	600	32
O=C(OC1CN2CCC1CC2)N(CC1CCC1)c1ccccc1 (centres unmarked) [Example 55]	–	350	110
Cc1cccc(N(CC2CCCC2)C(=O)OC2CN3CCC2CC3)c1 (centres unmarked) [Example 56]	–	750	37
O=C(OC1CN2CCC1CC2)N(CC1CCCCC1)c1ccccc1F (centres unmarked) [Example 57]	–	25	300
Cc1cccc(N(CC2CCC(C)CC2)C(=O)OC2CN3CCC2CC3)c1 (centres unmarked) [Example 58]	–	88	93
C=C(C)C1CCC(CN(C(=O)OC2CN3CCC2CC3)c2cccc(C)c2)CC1 (centres unmarked) [Example 59]	–	770	90
O=C(OC1CN2CCC1CC2)N(CC1=CCCCC1)c1ccccc1F (centres unmarked) [Example 60]	–	20	48
O=C(OC1CN2CCC1CC2)N(CC1CC=CCC1)c1cccc(Cl)c1 (centres unmarked) [Example 61]	–	350	74
O=C(OC1CN2CCC1CC2)N(CC1CC2CCC1C2)c1cccc(F)c1 (centres unmarked) [Example 62]	–	220	115
O=C(OC1CN2CCC1CC2)N(CC1CC2C=CC1C2)c1ccccc1 (centres unmarked) [Example 63]	–	60	64
C[N+]12CCC(CC1)C(OC(=O)N(Cc1ccc(F)cc1)c1ccccc1)C2.[I-] (centres unmarked) [Example 64]	–	3600	30
Cc1ccccc1N(Cc1ccccc1)C(=O)OC1C[N+]2(C)CCC1CC2.[I-] (centres unmarked) [Example 65]	–	14300	13
Cc1ccccc1N(Cc1cc(F)c(F)cc1F)C(=O)OC1C[N+]2(C)CCC1CC2.[I-] (centres unmarked) [Example 66]	–	4700	18
Cc1cccc(N(Cc2ccc(F)cc2)C(=O)OC2C[N+]3(C)CCC2CC3)c1.[I-] (centres unmarked) [Example 67]	–	3800	19
C[N+]12CCC(CC1)C(OC(=O)N(Cc1ccccc1)c1ccccc1F)C2.[I-] (centres unmarked) [Example 68]	–	9900	5
C[N+]12CCC(CC1)C(OC(=O)N(CC1CCCCC1)c1ccccc1F)C2.[I-] (centres unmarked) [Example 69]	–	14100	8
O=C(OC1CN2CCC1CC2)N1CCc2ccccc2[C@@H]1c1ccccc1 (some centres unmarked) [YM-905, reference compound]	without any significant affinity	1720	24
